Measurements published in patent US20130288989A1, “NEW USE OF CHEMICAL INGREDIENTS IN CYNOMORIUM AS PHYTOESTROGEN” (TIANJIN UNIVERSITY OF TRADITIONAL CHINESE MEDICINE, priority 2010, published 2013).

Assays:
Format in all cases: cell-based
ERβ = target: T1, ERβ (Homo sapiens, UniProt Q92731); assay: ERβ luciferase reporter gene transcription activation in transfected Hela cells; conditions: for ERβ (% of the control) mean ± S.D. / ERβ (% of estradiol): Hela cells; for ERβ (% of the control) mean ± S.D.: 24 h; for ERβ (% of estradiol): estradiol at 10^−8M
T1 construct: expressed in transfected cells; host or cells: Hela cells (ER expression free)
Description: (§1) Actually, estrogens show their biological activity by regulating estrogen responding genetic transcription.
(§2) Formulation of sample solutions of catechin, (−)epicatechin-3-O-gallate, naringenin-4′-O-glucoside, phlorizin, emodin, chrysophanol (separately obtained from Example 1):
(§3) Catechin, (−)epicatechin-3-O-gallate, naringenin-4′-O-glucoside, phlorizin, emodin, chrysophanol in corresponding weights were separately weighed precisely, than added with DMSO for dissolution, the corresponding sample solution high dose groups (10 μM or 1 μM), were diluted in certain times to separately obtain low dose groups (1 μM to 0.001 μM).
(§4) Under condition of 37° C. and 5% CO2, Hela cells were cultured in phenol red-free high sugar DMEM culture medium containing 10% calf serum in incubator, the cells were spread in 60% density on 96-well plate when cell density was about 90%, each well was added with 150 ul of phenol red-free DMEM culture medium containing 10% serum, cultivation was performed overnight. To each well of the 96-well plate, 100 ul of serum-free DMEM culture medium and 0.4 μg plasmid (ptk-ERE-luc 2 μg, tk-Renila 1 μg, ERα or ERβ 1 μg) were used for transfection. After 6 h of transfection, each well was added with 150 ul of serum-free phenol red-free DMEM culture medium. Three wells were selected form each group, added with 10^−8M estradiol E2, and substance to be tested in different concentrations, 15 ul/well (sample 4-5 concentration gradient groups), continuously cultured under condition of 37° C., 5% CO2 for 24 h. After 24 h, each well was added with 80 μl of cell disruption solution, and the cells were subjected to freeze thawing once to be sufficiently disrupted. As for the cell lysis solution of each well, its activities to firefly luciferase and Renila luciferase were separately measured.

ERα = target: T2, ERα (Homo sapiens, UniProt P03372); assay: ERα luciferase reporter gene transcription activation in transfected Hela cells; conditions: for ERα (% of the control) mean ± S.D. / ERα (% of estradiol): Hela cells; for ERα (% of the control) mean ± S.D.: 24 h; for ERα (% of estradiol): estradiol at 10^−8M
T2 construct: expressed in transfected cells; host or cells: Hela cells (ER expression free)
T2 sequence (P03372 1-595): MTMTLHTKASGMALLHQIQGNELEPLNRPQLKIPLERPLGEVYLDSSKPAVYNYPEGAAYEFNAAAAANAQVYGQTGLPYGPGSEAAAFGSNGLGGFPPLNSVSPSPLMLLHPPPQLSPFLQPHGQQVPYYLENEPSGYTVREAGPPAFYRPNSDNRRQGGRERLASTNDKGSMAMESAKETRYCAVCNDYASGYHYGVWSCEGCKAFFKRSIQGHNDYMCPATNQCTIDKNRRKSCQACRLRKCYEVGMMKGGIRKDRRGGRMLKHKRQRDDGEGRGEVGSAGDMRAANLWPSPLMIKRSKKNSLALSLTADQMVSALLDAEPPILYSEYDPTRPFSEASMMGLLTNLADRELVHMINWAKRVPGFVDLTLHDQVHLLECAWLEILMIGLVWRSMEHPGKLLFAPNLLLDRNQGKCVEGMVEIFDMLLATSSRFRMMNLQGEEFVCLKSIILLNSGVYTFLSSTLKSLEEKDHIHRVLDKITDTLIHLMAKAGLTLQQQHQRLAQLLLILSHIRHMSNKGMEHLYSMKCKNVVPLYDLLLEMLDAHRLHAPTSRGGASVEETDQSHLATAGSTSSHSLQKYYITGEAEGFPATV
Description: as §1, §2, §3, §4

estrogen receptor = assay: Estrogen receptor activation test: overall estrogen activity and ERβ versus ERα comparison; conditions: for ERβ/ERα (both % of estradiol at 10^−8M): Hela cells; for estrogen activity / estrogen receptor activation (in words): estradiol as positive control
Method: as §1, §4

T1 sequence (Q92731 whole entry): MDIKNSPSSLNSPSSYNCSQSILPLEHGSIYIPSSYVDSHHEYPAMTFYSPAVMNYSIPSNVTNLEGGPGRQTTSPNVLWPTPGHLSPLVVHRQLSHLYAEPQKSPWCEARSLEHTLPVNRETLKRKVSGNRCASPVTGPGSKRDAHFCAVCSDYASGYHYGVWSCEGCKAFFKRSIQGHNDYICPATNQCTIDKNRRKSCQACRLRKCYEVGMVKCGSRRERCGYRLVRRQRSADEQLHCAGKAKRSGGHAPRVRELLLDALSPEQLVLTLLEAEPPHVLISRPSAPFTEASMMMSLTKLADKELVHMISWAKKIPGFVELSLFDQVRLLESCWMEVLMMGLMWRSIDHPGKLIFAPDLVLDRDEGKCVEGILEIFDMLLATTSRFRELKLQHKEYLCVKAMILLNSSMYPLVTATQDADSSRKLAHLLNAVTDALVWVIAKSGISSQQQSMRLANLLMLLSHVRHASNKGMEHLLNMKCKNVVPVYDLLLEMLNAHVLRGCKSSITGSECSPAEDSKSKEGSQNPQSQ

SMILES: O=C1C[C@@H](c2ccc(O[C@@H]3O[C@H](CO)[C@@H](O)[C@H](O)[C@H]3O)cc2)Oc2cc(O)cc(O)c21 [Naringenin-4′-O-glucoside, naringenin-4′-O-glucoside]
- ERβ (% of the control) mean ± S.D. (ERβ; 10^−5 M): 215.85 ± 22.32 % of the control
- ERβ (% of estradiol) (ERβ; 10^−5 M): (108.71) % of estradiol
- ERβ (% of the control) mean ± S.D. (ERβ; 10^−6 M): 207.11 ± 15.76 % of the control
- ERβ (% of estradiol) (ERβ; 10^−6 M): (104.30) % of estradiol
- ERβ (% of the control) mean ± S.D. (ERβ; 10^−7 M): 200.66 ± 5.22 % of the control
- ERβ (% of estradiol) (ERβ; 10^−7 M): (101.06) % of estradiol
- ERβ (% of the control) mean ± S.D. (ERβ; 10^−8 M): 180.98 ± 10.46 % of the control
- ERβ (% of estradiol) (ERβ; 10^−8 M): (91.14) % of estradiol
- ERβ (% of the control) mean ± S.D. (ERβ; 10^−9 M): 137.90 ± 9.40 % of the control
- ERβ (% of estradiol) (ERβ; 10^−9 M): (69.45) % of estradiol
- concentration at which the transcriptional activity of ERβ is agonized (ERβ; luciferase reporter gene): 10^−9-10^−5 M
- ERα (% of the control) mean ± S.D. (ERα; 10^−5 M): 188.07 ± 18.61 % of the control
- ERα (% of estradiol) (ERα; 10^−5 M): (91.88) % of estradiol
- ERα (% of the control) mean ± S.D. (ERα; 10^−6 M): 198.72 ± 3.99 % of the control
- ERα (% of estradiol) (ERα; 10^−6 M): (97.08) % of estradiol
- ERα (% of the control) mean ± S.D. (ERα; 10^−7 M): 182.34 ± 5.97 % of the control
- ERα (% of estradiol) (ERα; 10^−7 M): (89.08) % of estradiol
- ERα (% of the control) mean ± S.D. (ERα; 10^−8 M): 157.62 ± 14.54 % of the control
- ERα (% of estradiol) (ERα; 10^−8 M): (77.00) % of estradiol
- ERα (% of the control) mean ± S.D. (ERα; 10^−9 M): 110.04 ± 5.59 % of the control
- ERα (% of estradiol) (ERα; 10^−9 M): (53.76) % of estradiol
- concentration at which the transcriptional activity of ERα is agonized (ERα; luciferase reporter gene): 10^−9-10^−5 M
- ERβ/ERα (both % of estradiol at 10^−8M) (estrogen receptor; sample 10^−5 M): 1.18
- ERβ/ERα (both % of estradiol at 10^−8M) (estrogen receptor; sample 10^−6 M): 1.07
- ERβ/ERα (both % of estradiol at 10^−8M) (estrogen receptor; sample 10^−7 M): 1.13
- ERβ/ERα (both % of estradiol at 10^−8M) (estrogen receptor; sample 10^−8 M): 1.18
- ERβ/ERα (both % of estradiol at 10^−8M) (estrogen receptor; sample 10^−9 M): 1.29
- estrogen activity / estrogen receptor activation (in words) (estrogen receptor): show relevance to estrogen receptor activation
- estrogen activity / estrogen receptor activation (in words) (estrogen receptor; listed as naringenin-4′-β-glucoside): potent activity of estrogen
- dose dependence of agonism of ERα and ERβ transcriptional activity (estrogen receptor; result in words): in a dose dependent manner
- selectivity to receptor subtypes (ERα vs ERβ) (estrogen receptor; result in words): a higher selectivity to ERβ than ERα
